Data taken from patent US11826402B2, “Combination therapy involving antibodies against claudin 18.2 for treatment of metastatic pancreatic adenocarcinoma” (Astellas Pharma Inc., priority 2013, dated 2023).
Converted amounts (≈) assume the structure as drawn. “Also recorded” adds a separate entry of the source.

Legend:
MiaPaCa-2-LVT [1] = test: Inhibition of proliferation (XTT viability assay, 4 days); type: cell-based, human
Procedure: (§1) To analyze dose-response curves of each chemotherapeutic agent, a proliferation assay was performed.
(§2) Cells were seeded in 96 well plates and after 4-6 hours gemcitabine or oxaliplatin was added in following concentrations: 1000, 500, 250, 100 and 20 ng/ml. The proliferation assay was incubated for 4 days at 37° C. and 5% CO2. 50 μl XTT complete reagent (50 parts XTT+1 part coupl. reagent mixed) was added and incubated at 37° C. Measurement of absorbance (cells plus supernatant) was done with the Tecan Safire after 3 h and 4 h. Inhibition of proliferation was calculated compared to medium values set as 100%. EC50 values for gemcitabine and oxaliplatin were calculated in the GraphPad Prism program.

DANG = test: as above; type: cell-based, human
Procedure: as §1, §2

[2] = test system: CLDN18.2 expression in DANG; test: Effect of chemotherapeutic agents on CLDN18.2 expression (RT-PCR, western blot); type: cell-based, human; conditions: DANG pretreated 2 days, Gem 1 ng/ml or Gem 1 ng/ml+Ox 10 ng/ml, versus untreated
Procedure: FIGS. 30A and 30B show the effect of treatment with chemotherapeutic agents on CLDN18.2 expression (RNA).
Actin was used to show equal loading of proteins.
The area of each bar is divided to indicate the percentage of cells in G0/G1, S and G2 phase.
For RNA isolation from pancreatic cancer cell lines, cells were seeded in 10 cm dishes and grown for 2-3 days until 80% confluent. RNA was isolated according to instructions supplied with the RNeasy® Mini Kit (Qiagen). cDNA preparation was performed following manufacturers instructions provided with the SuperScript® III First Strand kit (Invitrogen). RNA and cDNA samples were stored at −80° C.
Quantitative analysis of CLDN18.2 transcripts was performed by amplifying oligo(dT)-primed cDNAs in a 40 cycle PCR reaction using PCR primers #5054s (5′-[…]-3′) and #5060 as (5′-[…]-3′) differentiating between CLDN18.1 and CLDN18.2 isoforms. The reaction was prepared with SYBR Green (QuantiTect SYBR Green PCR Kit, Qiagen), which intercalates in double stranded DNA. […]
For isolation of proteins of pancreatic cancer cell lines, cells were seeded in 10 cm dishes and grown for 2-3 days until 80% confluent. […] Protein concentration was measured in a spectrophotometer (Absorption at 280 nm) and samples were stored at −80° C. until use. […]

Panc02.03 = test: IMAB362-mediated ADCC assay; type: cell-based, human; conditions: at least 2 donors
MiaPaCa-2-LVT [3] = test: IMAB362-mediated CDC after cultivation with chemotherapeutic agents
Procedure: Dose response curves of 2 independent assays. MiaPaCa2-LVT were cultivated in medium, Gem (10 ng/ml) or GemOx (10 ng/ml Gem+100 ng/ml Ox) for 70 h.
CDC was performed as follows.
An additional positive control was generated at the end of the reaction by addition of 0.8% Triton X100 to a second medium control well causing total lysis. […] All samples were prepared (200 μl each) at the same time in a 96 well deepwell dilution plate. Samples were taken 3 times from each well by reverse pipetting to generate the triplicates in the assay plates.
To each well 10 μl PBS was added, except in the Triton-Lysis control wells. To each Triton-Lysis control well, 10 μl 0.8% Triton/PBS solution was added. Luciferin substrate solution was prepared (6114 μl Aqua bidest, 2496 μl HEPES (IM), 1998 μl 1×DPBS, 4992 μl D-Luciferin Stocksolution (12 mg/ml)). To each well 50 μl Luciferin substrate solution was added. […] Plates will be measured in a microplate reader. • Complement-dependent lysis was calculated using formula: Specific lysis (%)=100−[(RLUsample−RLUtriton)/(RLUHSCM−RLUtriton)×100]
Modifications for testing the pancreatic cancer cell lines: • Pancreatic cancer cells were transfected with luciferase RNA using optimized conditions.

CLDN18.1 = CLDN18.1 (Homo sapiens, UniProt P56856); test: Binding to other claudin family members (background)
CFPAC1 = test: IMAB362-mediated ADCC assay; type: cell-based, human; conditions: at least 2 donors
DANG xenografts = test: Subcutaneous DANG xenograft treatment; type: in vivo, mice; conditions: low CLDN18.2 expressing DANG xenografts
[4] = Phase I clinical study, single intravenous administration; type: in vivo, human
From the text: IMAB362 is in early clinical testing. A phase I clinical study has been conducted in human. […] In an ongoing phase IIa clinical study IMAB362 is given repetitively.

Patu8902 = test: IMAB362-mediated CDC assay (healthy human serum pool); type: cell-based
Procedure: In addition, the LVT cell lines and the parental strains were tested in CDC.
CHO-K1 cells stably transfected with CLDN18.2 (p740) and luciferase were used as assay positive controls in each assay (FIG. 23A). […] This is most likely due to the fact that neoplastic cells over-express one or more membrane bound complement inhibitory proteins (e.g. CD46, CD55 and CD59) (Geis et al., Curr Cancer Drug Targets, 2010 10:922-931). However, if expression of these inhibitory proteins on tumor cells affect clinical outcome of an antibody therapy is still contradictory (Dzietczenia et al. Med. Oncol. 2010, 27:743-6; Weng and Levy at al., Blood 2001 98:1352-7). In addition to the endogenous cell lines, all the LVT cell lines were tested in CDC assays.

[5] = Homo sapiens, 96 h, 4 days exposure

Chain of CLDN18.1 (P56856 whole entry): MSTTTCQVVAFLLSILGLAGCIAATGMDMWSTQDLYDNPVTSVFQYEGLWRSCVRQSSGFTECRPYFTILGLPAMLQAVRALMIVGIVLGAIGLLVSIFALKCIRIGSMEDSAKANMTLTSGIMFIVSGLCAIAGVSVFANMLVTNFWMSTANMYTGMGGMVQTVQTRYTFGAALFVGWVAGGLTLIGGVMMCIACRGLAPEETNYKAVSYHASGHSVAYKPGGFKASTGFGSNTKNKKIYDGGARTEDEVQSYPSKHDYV

Molecule	sensitivity of cells to the agent (MiaPaCa-2-LVT [1])	IC50 (MiaPaCa-2-LVT [1]; [5])	sensitivity of cells to the agent (DANG)	IC50 (DANG; [5])	mRNA and protein levels of CLDN18.2 [2]	mRNA and protein levels of CLDN18.2 ([2]; listed as Gem)	ADCC EC50 (Panc02.03)	ADCC Max. lysis (Panc02.03)	max lyses (CDC), Gem treated versus medium (MiaPaCa-2-LVT [3]; MiaPaCa-2-LVT treated with Gem)	EC50 for IMAB362 specific lyses (CDC) (MiaPaCa-2-LVT [3]; MiaPaCa-2-LVT treated with Gem (10 ng/ml, 70 h))	EC50 for IMAB362 specific lyses (CDC) (MiaPaCa-2-LVT [3]; medium cultivated MiaPaCa-2-LVT)	binding to CLDN18.1 and other claudin family members (CLDN18.1)	ADCC EC50 (CFPAC1)	ADCC Max. lysis (CFPAC1)	growth inhibition compared to high CLDN18.2 expressing xenograft tumors (DANG xenografts)	measured tumor markers ([4]; one patient, within 4 weeks after treatment)	tolerability in patients ([4]; single i.v. administration 33-1000 mg/m^2, observed 28 days)	CDC EC50 (Patu8902)	CDC Max. lysis (Patu8902)
Nc1ccn([C@@H]2O[C@H](CO)[C@@H](O)C2(F)F)c(=O)n1 [gemcitabine, 4-amino-1-(2-deoxy-2,2-difluoro-β-D-erythro-pentofuranosyl)pyrimidin-2(1H)-one]	less sensitive	0.05 µg/mL (≈ 0.19 µM)	very sensitive	~0.001 µg/mL (≈ 0.0038 µM)	increased; also recorded: upregulation	upregulation	–	–	–	–	–	–	–	–	–	–	–	–	–
IMAB362: chimeric IgG1 antibody directed against CLDN18.2, developed by Ganymed Pharmaceuticals AG	–	–	–	–	–	–	n.m.	n.m.	increase	4.677 µg/mL	7.665 µg/mL	does not bind	n.m.	0-1.5%	reduced	decreased significantly	very well tolerated	n.m.	n.m.
